# Results reported in patent US20240358705A1, “COMPOSITIONS AND METHODS FOR TREATMENT OF CANCER” (Board of Supervisors of Louisiana State University and …, priority 2021, published 2024).
# How the values were obtained:
# [1] = test system: BM-MDSCs; assay: XFe ATP rate assay, BM-MDSCs; type: cell-based, mouse; conditions: 10 μM, 72 hours
# Method: Bone marrow cells were isolated by flushing the tibia and femurs of wild-type C57BL/6N mice. […] To generate BM-MDSCs, 3×10^6 cells were plated in a 6-well dish and incubated at 37° C., 5% CO2 for 96 hours. For treatment, drugs were administered at either 3 μM or 10 μM concentrations and added to the BM-MDSC cell culture well 24 hours after plating.
# Treated CD8 T cell were prepared following the in vitro T cell activation method and incubated for 72 hours at 37° C., 5% CO2. Treated BM-MDSCs were prepared followed the in vitro BM-MDSCs differentiation method. The XFe ATP rate assay preparation and analysis was conducted following the manufacturer's user guide and instructions. […] Treated cells were removed from culture, pelleted and resuspended in warm assay medium at a concentration of 3×10^6 cells/ml (1.5×10^5 cells/well) for CD8 T cells and 2.6×10^6 cells/ml (1.3×10^5 cells/well) for BM-MDSCs. Cells were adhered to the culture plate by centrifugation 200×G, for one minute with zero brake per the manufacturer's instructions for immobilization of non-adherent cells (Agilent, Santa Clara, CA). […] Results were procured using the Seahorse XF real-time ATP rate assay report generator.
# [2] = interstitial pulmonary fibrosis; cited from earlier work
# [3] = test system: OT-I CD8 T cells; assay: In vitro cytotoxicity assay (E.G7-OVA target cells); type: cell-based, mouse; conditions: CD8 T cells treated 72 hours (10 μM printed for GLPG1205)
# Method: Lymph nodes and spleen were isolated from wild-type C57BL/6N mice. Tissue was mechanically dissociated with the back of a syringe plunger and passed through a […]. […] Treated cells were incubated at 37° C., 5% CO2 for the designed study duration. Treated OT-I CD8 T cells were prepared following the in vitro T cell activation method. Non-target EL4 cells (CFSE low—0.2 μM) and target E.G7-OVA cells (CFSE high—[…]) were prepared following the CFSE labeling protocol. Cells were subsequently washed, pelleted, resuspended at 1×10^6 cells/ml, and mixed at 1:1 ratio. 100 μl of the mixed cells were plated into a 96-well flat bottom plate.
smiles,measurement,setting,value
"O=c1nc(OC[C@@H]2COCCO2)cc2n1CCc1cc(C#CC3CC3)ccc1-2 [GLPG1205, 9-Cyclopropylethynyl-2-((S)-1-[1,4]dioxan-2-ylmethoxy)-6,7-dihydropyrimido[6,1-a]isoquinolin-4-one]",energetic phenotype (energetic map),[1],glycolytic-predominant quiescent phenotype
same,percent of ATP generated by glycolysis,[1]; DMSO 39.85%,45.55%
same,percent of ATP generated by OXPHOS,[1]; DMSO 60.15%,54.45%
same,ATP production rate through mitochondrial OXPHOS,[1]; DMSO 690.95,537.83 pmol/min
same,total ATP production rate,[1]; DMSO control 1149.1,987.48 pmol/min
same,ECAR and PER,[1]; vs DMSO,did not observe any changes
same,OCR,[1]; vs DMSO,overall reduction in OCR
same,"fibrosis, over the standard of care",[2],non-significant reduction in fibrosis
same,killing capacity compared to DMSO control (percent specific lysis),[3],significantly improved killing capacity
